Drawing on patent publication US9416115B2, “Fused heterocyclic compounds as ion channel modulators” (Gilead Sciences, Inc., priority 2013, dated 2016), this text covers inhibition for 26 compounds.

Where two headings read alike, the source gives them in different places. Where only a bound is given, the exact number is not on record here.

The target of one experiment is hNav1.1 (SCN1A) (Homo sapiens, UniProt P35498). Kind of experiment: Use-dependent inhibition of the CNS Nav1.1 sodium channel. The class given is cell-based. Particulars: use-dependent block, 25 Hz, pulse 20, read-out: Nav1.1 UDB 25 Hz 10 uM. Summed up:
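HEK-293 cells stably expressing WT hNav1.1, automated whole-cell patch clamp at 23-25 °C with CsF-based internal and NaCl external solutions, pH 7.35. Compound applied twice, 200 s equilibration; block measured at pulse 20 of a 25 Hz train (0 mV, 20 ms) from −120 mV, as mean % inhibition versus compound-free.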

Experiment [1] has as its target wild-type human cardiac sodium channel, hNav1.5 (Homo sapiens, UniProt Q14524). Kind of experiment: Peak INa screening assay (tonic block and use-dependent block). In kind it is cell-based. The method, boiled down: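 Whole-cell automated patch clamp, 23-25° C, on hNav1.5 alpha-only HEK293 cells with Na+ lowered to 40 mM by choline. Block measured after two additions of 1 or 3 μM compound and 200 s wait: tonic at 0.1 Hz, use-dependent at 50th pulse (−20 mV, 20 ms, 3 Hz) from −100 mV, relative to drug-free, rundown corrected.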

The mark [2] stands for this setting: tonic block of Peak INa, 0.1 Hz, holding -100 mV, read-out: Peak TB 3 uM.
The mark [3] stands for this setting: use-dependent block of Peak INa, 3 Hz, pulse 50, read-out: Peak UDB 3 Hz 3 uM.

Chain of wild-type human cardiac sodium channel, hNav1.5 (Q14524 whole entry): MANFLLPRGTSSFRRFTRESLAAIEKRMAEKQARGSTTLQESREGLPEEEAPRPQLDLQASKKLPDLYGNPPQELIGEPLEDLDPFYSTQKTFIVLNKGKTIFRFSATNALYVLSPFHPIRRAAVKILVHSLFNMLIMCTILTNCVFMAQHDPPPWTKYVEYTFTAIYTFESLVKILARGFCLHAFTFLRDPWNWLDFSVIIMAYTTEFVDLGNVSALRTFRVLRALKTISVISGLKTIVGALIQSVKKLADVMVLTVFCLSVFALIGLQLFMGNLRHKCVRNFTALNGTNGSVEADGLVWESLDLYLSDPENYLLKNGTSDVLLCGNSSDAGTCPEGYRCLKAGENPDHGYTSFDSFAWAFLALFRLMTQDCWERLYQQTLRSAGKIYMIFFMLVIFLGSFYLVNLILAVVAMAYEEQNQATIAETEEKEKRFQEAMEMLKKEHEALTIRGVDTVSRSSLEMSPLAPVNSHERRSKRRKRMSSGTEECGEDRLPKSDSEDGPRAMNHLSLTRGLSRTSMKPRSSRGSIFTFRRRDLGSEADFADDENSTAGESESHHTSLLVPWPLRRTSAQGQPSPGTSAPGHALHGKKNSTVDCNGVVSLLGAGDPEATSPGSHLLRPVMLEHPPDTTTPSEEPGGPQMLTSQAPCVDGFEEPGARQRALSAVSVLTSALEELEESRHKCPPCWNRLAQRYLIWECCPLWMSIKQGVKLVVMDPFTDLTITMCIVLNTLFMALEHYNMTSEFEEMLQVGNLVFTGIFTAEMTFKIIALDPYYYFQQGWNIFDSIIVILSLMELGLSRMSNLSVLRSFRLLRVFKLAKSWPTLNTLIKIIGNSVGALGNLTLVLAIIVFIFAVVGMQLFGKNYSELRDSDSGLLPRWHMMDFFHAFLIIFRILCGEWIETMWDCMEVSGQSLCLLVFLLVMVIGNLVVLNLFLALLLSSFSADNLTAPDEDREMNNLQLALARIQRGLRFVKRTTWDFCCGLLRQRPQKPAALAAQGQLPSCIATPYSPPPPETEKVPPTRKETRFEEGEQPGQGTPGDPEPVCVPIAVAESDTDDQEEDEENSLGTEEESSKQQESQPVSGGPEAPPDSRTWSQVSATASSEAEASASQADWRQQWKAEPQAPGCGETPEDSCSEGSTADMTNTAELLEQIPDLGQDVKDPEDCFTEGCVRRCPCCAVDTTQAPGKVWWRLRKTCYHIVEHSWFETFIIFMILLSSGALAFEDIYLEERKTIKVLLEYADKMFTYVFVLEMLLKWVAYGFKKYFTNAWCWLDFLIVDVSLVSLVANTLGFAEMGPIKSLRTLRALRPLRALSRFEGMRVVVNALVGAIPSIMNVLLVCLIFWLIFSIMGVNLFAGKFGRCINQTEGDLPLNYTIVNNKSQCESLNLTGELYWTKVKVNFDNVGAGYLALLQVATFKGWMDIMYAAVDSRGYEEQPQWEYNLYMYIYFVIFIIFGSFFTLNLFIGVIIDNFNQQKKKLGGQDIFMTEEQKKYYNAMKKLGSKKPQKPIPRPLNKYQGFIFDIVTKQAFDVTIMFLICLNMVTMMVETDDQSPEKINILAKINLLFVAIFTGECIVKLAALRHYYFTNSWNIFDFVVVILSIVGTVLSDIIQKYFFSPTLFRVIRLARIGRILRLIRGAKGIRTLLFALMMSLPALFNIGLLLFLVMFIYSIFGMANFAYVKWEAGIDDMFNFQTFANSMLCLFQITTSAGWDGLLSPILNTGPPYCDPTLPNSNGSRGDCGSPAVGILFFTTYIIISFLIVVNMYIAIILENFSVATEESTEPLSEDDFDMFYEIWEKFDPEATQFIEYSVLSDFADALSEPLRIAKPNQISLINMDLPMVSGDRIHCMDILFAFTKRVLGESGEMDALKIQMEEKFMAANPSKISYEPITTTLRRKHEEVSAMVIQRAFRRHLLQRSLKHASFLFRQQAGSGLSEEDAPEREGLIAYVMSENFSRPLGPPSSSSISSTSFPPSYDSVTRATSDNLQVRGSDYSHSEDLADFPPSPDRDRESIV

`Cc1nnc(COc2noc3ccc(-c4ccc(OC(F)(F)F)cc4)cc23)o1` [Example 99, 3-((5-methyl-1,3,4-oxadiazol-2-yl)methoxy)-5-(4-(trifluoromethoxy)phenyl)benzo[d]isoxazole]: the inhibition at 10 µM at hNav1.1 (SCN1A) amounted to 30%. Also, the inhibition at 3 µM in experiment [1] (setting [2]) is 55.6%; in experiment [1] (setting [3]), < 5%.

`CC(C)c1nnc(COc2noc3ccc(-c4ccc(OC(F)(F)F)cc4)cc23)o1` [Example 100, 3-((5-isopropyl-1,3,4-oxadiazol-2-yl)methoxy)-5-(4-(trifluoromethoxy)phenyl)benzo[d]isoxazole]: the inhibition at 10 µM on hNav1.1 (SCN1A) came to 9.9%. Further, the inhibition at 3 µM in experiment [1] (setting [2]) was 23.5%; in experiment [1] (setting [3]), < 5%.

With `Cc1nnc(COc2noc3ccc(-c4ccc(OC(F)(F)F)cc4)cc23)s1` [Example 101, 3-((5-methyl-1,3,4-thiadiazol-2-yl)methoxy)-5-(4-(trifluoromethoxy)phenyl)benzo[d]isoxazole], the inhibition at 10 µM on hNav1.1 (SCN1A) is < 5%. Besides, the inhibition at 3 µM in experiment [1] (setting [2]) is 13.5%; in experiment [1] (setting [3]), < 5%.

On to `Cc1cc(COc2noc3ccc(-c4ccc(OC(F)(F)F)cc4)cc23)on1` [Example 102, 3-((3-methylisoxazol-5-yl)methoxy)-5-(4-(trifluoromethoxy)phenyl)benzo[d]isoxazole], for which the inhibition at 10 µM on hNav1.1 (SCN1A) is < 5%. The inhibition at 3 µM in experiment [1] (setting [2]) was 27.8%; in experiment [1] (setting [3]) it was 7.7%.

In the case of `N#CCOc1noc2ccc(-c3ccc(OC(F)(F)F)cc3)cc12` [Example 103, 2-((5-(4-(trifluoromethoxy)phenyl)benzo[d]isoxazol-3-yl)oxy)acetonitrile], the inhibition at 10 µM at hNav1.1 (SCN1A) is 8.5%. Also, the inhibition at 3 µM is 18.8% in experiment [1] (setting [2]) and < 5% in experiment [1] (setting [3]).

On to `Fc1cc(-c2ccc(OC(F)(F)F)cc2)cc2c(OCc3nnc(C4CC4)o3)noc12` [Example 104, 3-((5-cyclopropyl-1,3,4-oxadiazol-2-yl)methoxy)-7-fluoro-5-(4-(trifluoromethoxy)phenyl)benzo[d]isoxazole], for which the inhibition at 10 µM at hNav1.1 (SCN1A) was 53.1%. The values for the inhibition at 3 µM in experiment [1] (setting [2]) and in experiment [1] (setting [3]) were 23.6% and 19.8%, respectively.

Regarding `Cc1cc(-c2ccc(OC(F)(F)F)cc2)cc2c(OCc3nnc(C4CC4)o3)noc12` [Example 105, 3-((5-cyclopropyl-1,3,4-oxadiazol-2-yl)methoxy)-7-methyl-5-(4-(trifluoromethoxy)phenyl)benzo[d]isoxazole], the inhibition at 10 µM on hNav1.1 (SCN1A) worked out at 75.7%. The inhibition at 3 µM worked out at 9.4% in experiment [1] (setting [2]) and 27.8% in experiment [1] (setting [3]).

With `CC(=O)N1CCC[C@H]1COc1noc2ccc(-c3ccc(OC(F)(F)F)cc3)cc12` [Example 109, (S)-1-(2-(((5-(4-(trifluoromethoxy)phenyl)benzo[d]isoxazol-3-yl)oxy)methyl)pyrrolidin-1-yl)ethan-1-one], the inhibition at 10 µM on hNav1.1 (SCN1A) came to 57%. Further, the values for the inhibition at 3 µM in experiment [1] (setting [2]) and in experiment [1] (setting [3]) were 14.5% and < 5%, respectively.

For the compound `CC(=O)N1CC(COc2noc3ccc(-c4ccc(OC(F)(F)F)cc4)cc23)C1` [Example 110, 1-(3-(((5-(4-(trifluoromethoxy)phenyl)benzo[d]isoxazol-3-yl)oxy)methyl)azetidin-1-yl)ethan-1-one], the inhibition at 10 µM on hNav1.1 (SCN1A) was 77.7%. Moreover, the inhibition at 3 µM amounted to 14.5% in experiment [1] (setting [2]) and 11.5% in experiment [1] (setting [3]).

As to `CC(C)(C)OC(=O)N1CCOC[C@H]1COc1noc2ccc(-c3ccc(OC(F)(F)F)cc3)cc12` [Example 111, tert-butyl(S)-3-(((5-(4-(trifluoromethoxy)phenyl)benzo[d]isoxazol-3-yl)oxy)methyl)morpholine-4-carboxylate], at hNav1.1 (SCN1A), the inhibition at 10 µM came to 50.4%. Further, the inhibition at 3 µM is < 5% in experiment [1] (setting [2]) and 7.3% in experiment [1] (setting [3]).

Regarding `FC(F)(F)Oc1ccc(-c2ccc3onc(OC[C@@H]4COCCN4)c3c2)cc1` [Example 113, (S)-3-(morpholin-3-ylmethoxy)-5-(4-(trifluoromethoxy)phenyl)benzo[d]isoxazole], the inhibition at 10 µM at hNav1.1 (SCN1A) amounted to 88.4%. For the same compound, the inhibition at 3 µM in experiment [1] (setting [2]) is 54.3%; in experiment [1] (setting [3]), 37.3%.

As to `FC(F)(F)Oc1ccc(-c2ccc3onc(OC[C@H]4COCCN4)c3c2)cc1` [Example 114, (R)-3-(morpholin-3-ylmethoxy)-5-(4-(trifluoromethoxy)phenyl)benzo[d]isoxazole], the inhibition at 10 µM on hNav1.1 (SCN1A) turned out to be 87.1%. Also, the inhibition at 3 µM in experiment [1] (setting [2]) turned out to be 43.4%; in experiment [1] (setting [3]) it was 33.3%.

Consider `CC(=O)N1CCOC[C@H]1COc1noc2ccc(-c3ccc(OC(F)(F)F)cc3)cc12` [Example 115, (S)-1-(3-(((5-(4-(trifluoromethoxy)phenyl)benzo[d]isoxazol-3-yl)oxy)methyl)morpholino)ethan-1-one], for which the inhibition at 10 µM on hNav1.1 (SCN1A) worked out at 76.4%. Also, the inhibition at 3 µM in experiment [1] (setting [2]) was found to be 19.8%; in experiment [1] (setting [3]), 18.3%.

As to `CC(=O)N1CCOC[C@@H]1COc1noc2ccc(-c3ccc(OC(F)(F)F)cc3)cc12` [Example 116, (R)-1-(3-(((5-(4-(trifluoromethoxy)phenyl)benzo[d]isoxazol-3-yl)oxy)methyl)morpholino)ethan-1-one], the inhibition at 10 µM on hNav1.1 (SCN1A) was 70.4%. Further, the figures for the inhibition at 3 µM in experiment [1] (setting [2]) and in experiment [1] (setting [3]) were 28.9% and 15%, respectively.

`C[C@@H](N)COc1noc2ccc(-c3ccc(OC(F)(F)F)cc3)cc12` [Example 117, (R)-1-((5-(4-(trifluoromethoxy)phenyl)benzo[d]isoxazol-3-yl)oxy)propan-2-amine]: the inhibition at 10 µM at hNav1.1 (SCN1A) amounted to 80.9%. Also, the inhibition at 3 µM in experiment [1] (setting [2]) is 79.3%; in experiment [1] (setting [3]) it was 60.8%.

In the case of `CC(C)[C@H](N)COc1noc2ccc(-c3ccc(OC(F)(F)F)cc3)cc12` [Example 118, (S)-3-methyl-1-((5-(4-(trifluoromethoxy)phenyl)benzo[d]isoxazol-3-yl)oxy)butan-2-amine], the inhibition at 10 µM on hNav1.1 (SCN1A) is 89.4%. In addition, the inhibition at 3 µM stood at 88.8% in experiment [1] (setting [2]) and 56.1% in experiment [1] (setting [3]).

In the case of `C[C@H](COc1noc2ccc(-c3ccc(OC(F)(F)F)cc3)cc12)N1CCCC1=O` [Example 119, (R)-1-(1-((5-(4-(trifluoromethoxy)phenyl)benzo[d]isoxazol-3-yl)oxy)propan-2-yl)pyrrolidin-2-one], the inhibition at 10 µM on hNav1.1 (SCN1A) amounted to 56.3%. The inhibition at 3 µM in experiment [1] (setting [2]) amounted to 36.1%; in experiment [1] (setting [3]) it was 6.4%.

Turning to `CC(C)[C@@H](COc1noc2ccc(-c3ccc(OC(F)(F)F)cc3)cc12)N1CCCC1=O` [Example 120, (S)-1-(3-methyl-1-((5-(4-(trifluoromethoxy)phenyl)benzo[d]isoxazol-3-yl)oxy)butan-2-yl)pyrrolidin-2-one], the inhibition at 10 µM on hNav1.1 (SCN1A) stood at 68.9%. For the same compound, the inhibition at 3 µM amounted to 35.2% in experiment [1] (setting [2]) and 6.6% in experiment [1] (setting [3]).

In the case of `O=C(COc1noc2ccc(-c3ccc(OC(F)(F)F)cc3)cc12)N1CCCC1` [Example 121, 1-(pyrrolidin-1-yl)-2-((5-(4-(trifluoromethoxy)phenyl)benzo[d]isoxazol-3-yl)oxy)ethan-1-one], the inhibition at 10 µM at hNav1.1 (SCN1A) stood at 43.6%. Further, the inhibition at 3 µM in experiment [1] (setting [2]) was 79%; in experiment [1] (setting [3]) it was 23.4%.

Regarding `CC(C)NC(=O)COc1noc2ccc(-c3ccc(OC(F)(F)F)cc3)cc12` [Example 122, N-isopropyl-2-((5-(4-(trifluoromethoxy)phenyl)benzo[d]isoxazol-3-yl)oxy)acetamide], the inhibition at 10 µM on hNav1.1 (SCN1A) is < 5%. In addition, the inhibition at 3 µM is 10.7% in experiment [1] (setting [2]) and < 5% in experiment [1] (setting [3]).

In the case of `FC(F)(F)Oc1ccc(-c2ccc3onc(OCCNc4ncccn4)c3c2)cc1` [Example 123, N-(2-((5-(4-(trifluoromethoxy)phenyl)benzo[d]isoxazol-3-yl)oxy)ethyl)pyrimidin-2-amine], on hNav1.1 (SCN1A), the inhibition at 10 µM is < 5%. Besides, the results for the inhibition at 3 µM in experiment [1] (setting [2]) and in experiment [1] (setting [3]) were 27.3% and < 5%, respectively.

Turning to `FC(F)(F)Oc1ccc(-c2ccc3onc(Oc4ncccn4)c3c2)cc1` [Example 124, 3-(pyrimidin-2-yloxy)-5-(4-(trifluoromethoxy)phenyl)benzo[d]isoxazole], on hNav1.1 (SCN1A), the inhibition at 10 µM is 35%. The inhibition at 3 µM is 49.9% in experiment [1] (setting [2]) and < 5% in experiment [1] (setting [3]).

For the compound `FC(F)(F)Oc1ccc(-c2ccc3onc(NCc4ncccn4)c3c2)cc1` [Example 126, N-(pyrimidin-2-ylmethyl)-5-(4-(trifluoromethoxy)phenyl)benzo[d]isoxazol-3-amine], the inhibition at 10 µM at hNav1.1 (SCN1A) was < 5%. The figures for the inhibition at 3 µM in experiment [1] (setting [2]) and in experiment [1] (setting [3]) were 17.3% and < 5%, respectively.

As to `CN1CCN(c2noc3ccc(-c4ccc(OC(F)(F)F)cc4)cc23)CC1` [Example 127, 3-(4-methylpiperazin-1-yl)-5-(4-(trifluoromethoxy)phenyl)benzo[d]isoxazole], the inhibition at 10 µM on hNav1.1 (SCN1A) came out at 82.8%. For the same compound, the inhibition at 3 µM in experiment [1] (setting [2]) was 23.7%; in experiment [1] (setting [3]), 25.1%.

Regarding `FC(F)(F)Oc1ccc(-c2ccc3onc(NCC4CC4)c3c2)cc1` [Example 128, N-(cyclopropylmethyl)-5-(4-(trifluoromethoxy)phenyl)benzo[d]isoxazol-3-amine], at hNav1.1 (SCN1A), the inhibition at 10 µM was < 5%. Also, the inhibition at 3 µM was 17.3% in experiment [1] (setting [2]) and < 5% in experiment [1] (setting [3]).

In the case of `FC(F)(F)Oc1ccc(-c2ccc3onc(N4CCOCC4)c3c2)cc1` [Example 130, 3-morpholino-5-(4-(trifluoromethoxy)phenyl)benzo[d]isoxazole], the inhibition at 10 µM at hNav1.1 (SCN1A) was < 5%. Besides, the inhibition at 3 µM in experiment [1] (setting [2]) is 9.2%; in experiment [1] (setting [3]) it was < 5%.
